The text below walks through data of PubChem BioAssay (NCI).

Molecules are shown by their SMILES. Where “and” joins values, the source holds several entries; their conditions need not be identical. Equal entries are not always repeated.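 Five concentrations, 48 hours, 96-well plates. GI50 marks 50% less growth. TGI marks complete inhibition of growth.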

Holding throughout (experiment): NCI tumour cell line growth inhibition, 48 h
In test [1] the test system is T-47D breast.
Test [2] concerns SNB-75 CNS.
Test [3] deals with DU-145 prostate.
The subject of test [4] is SK-MEL-2 melanoma.
Test [5] concerns MDA-MB-435.
For test [6], the system named is HCT-116 colon.
Test [7] relates to RPMI-8226 leukemia.
The subject of test [8] is UACC-62 melanoma.
The subject of test [9] is SF-539 CNS.
Test [10] relates to MALME-3M melanoma.

In the case of `Cc1csc(/C=C/C(=O)c2nnn(-c3ccnc4c(C(F)(F)F)cccc34)c2C)c1`, the GI50 in test [1] was 21.1 µM; in [2], 27300 nM; in [3], above 100000 nM; in [4], above 100 µM; in [5] it was 56900 nM; in [6], 39900 nM. The GI50 in test [7] was 23.6 µM; in test [8], 62200 nM; in test [9], above 100 µM; in test [10] it was above 100 µM. In addition, the TGI in test [1] was above 100 µM; in [2], 99.4 µM; in test [3], above 100 µM; in test [4], above 100 µM; in test [5] it was above 100 µM; in test [6], above 100 µM. The TGI in [7], in test [8], in [9] and in test [10] was above 100 µM each time.

With `Cc1nc(-c2cn3c(n2)-c2ccc(-c4cnn(C(C)(C)C(N)=O)c4)cc2OCC3)n(C(C)C)n1`, the GI50 was < 0.0384 µM and 0.00372 µM in [1]; 20.4 nM and 14.2 nM in [2]; 1720 nM and 2150 nM in test [3]; 4.25 µM and 4.74 µM in test [4]; 2310 nM and 2670 nM in test [5]; 1200 nM and 399 nM in test [6]. Besides, the GI50 in [7] is 5.9 µM and > 8.93 µM; in test [8], 321 nM and 246 nM; in [9], 0.654 µM and 0.493 µM. Moreover, the TGI in [2] was 2.63 µM and > 2.63 µM; in [3], above 100 µM; in test [4] it was 24.2 µM and > 10 µM; in [5], 26.2 µM and > 10 µM; in test [6] it was 23.4 µM and > 10 µM; in test [7], 28.5 µM and > 10 µM. Also, the TGI is 3.64 µM and 4.39 µM in test [8]; 6.13 µM and 5.83 µM in [9]; 3.12 µM and > 10 µM in [10].

Regarding `C=CC(=O)Nc1cc(C)ccc1Nc1nc(Nc2cc(OC)ncc2C)ncc1C(F)(F)F`, the GI50 in test [1] is 1.2 µM; in test [2], 285 nM; in test [3], 996 nM; in [4], 0.313 µM; in test [5] it was 308 nM; in test [6], 256 nM. For the same compound, the GI50 was 0.634 µM in test [7], 72.5 nM in test [8], 0.344 µM in [9] and 0.0211 µM in test [10]. In addition, the TGI is above 100 µM in [1]; 1.45 µM in [2]; 12.3 µM in test [3]; 1.85 µM in test [4]; 3.85 µM in [5]; 1.31 µM in [6]. The TGI in test [7] is above 25.3 µM; in test [8] it was 0.71 µM; in test [9], 1.63 µM; in test [10], 0.161 µM.

Regarding `COc1cccc(NC(=O)c2sc3nc(C)c(C(O)c4ccccc4)cc3c2N)c1` (stereo unspecified), the GI50 in [1] is 0.737 µM; in test [2], 174 nM; in test [3] it was 382 nM; in [4] it was 0.96 µM; in [5] it was 25.1 nM; in test [6], 241 nM. In addition, the GI50 was 0.357 µM in test [7], 503 nM in test [8], 0.185 µM in test [9] and 0.58 µM in test [10]. Moreover, the TGI came to 28.4 µM in [1]; 4.55 µM in [2]; 19.6 µM in test [3]; 29.7 µM in test [4]; 0.0751 µM in test [5]; 12 µM in [6]. Moreover, the TGI in test [7] came to 12.3 µM; in test [8], 17.3 µM; in test [9], 0.598 µM; in test [10], 27.4 µM.

Turning to `C[C@@]12CCC[C@@](C)(C(=O)O)C1CC[C@]13C[C@@](O)(CO)[C@](O)(CCC12)C3` (stereo partly specified), the GI50 is above 100 µM in test [1]; above 100000 nM in test [2]; above 100000 nM in [3]; above 100 µM in test [4]; above 100000 nM in [5]; above 100000 nM in test [6]. In addition, the GI50 is above 100 µM in test [7], above 100000 nM in test [8], above 100 µM in test [9] and above 100 µM in test [10]. Further, the TGI in test [1], in test [2], in test [3], in test [4], in [5] and in test [6] was above 100 µM in each case. The TGI in test [7], in test [8], in [9] and in test [10] was above 100 µM each time.

Consider `CC(C)=CCC/C(C)=C/CC/C(C)=C/CSc1ccccc1C(=O)O`, for which the GI50 in test [1] was 33.6 µM; in test [2] it was above 66400 nM; in test [3], 24600 nM; in [4] it was 22.6 µM; in test [5], 27400 nM; in [7], 25.2 µM. For the same compound, the GI50 in [9] was 19.9 µM; in [10], 25.6 µM. The TGI in test [1] is above 91.3 µM; in test [2], > 100 µM and 42.1 µM; in test [3], 55.1 µM and 33.5 µM; in [4], 45.4 µM and 29.4 µM; in [5] it was 73.6 µM and 55.5 µM; in test [6], 56.7 µM and 30.4 µM. Further, the TGI in test [7] is 73.1 µM and 81.4 µM; in test [8], 35 µM and 34 µM; in test [9], 42.2 µM and 33.9 µM; in test [10], 66.2 µM.

For the compound `Cn1cnc([N+](=O)[O-])c1Sc1nc(N)nc2c1ncn2C1CC(O)C(CO)O1` (stereo unspecified), the TGI was above 63.9 µM in test [1]; 37.7 µM in [2]; above 50.8 µM in [3]; 25.7 µM in test [4]; above 58.8 µM in test [5]; above 100 µM in test [6]. Moreover, the TGI in test [7] is 36.2 µM; in test [8] it was above 20.8 µM; in test [9], above 100 µM; in test [10], above 100 µM.

Consider `C/C(=N\NS(=O)(=O)c1ccc(C)cc1)P(=O)(O)O`, for which the TGI in [1], in test [2], in test [3], in [4], in [5] and in test [6] was above 100 µM each time. The TGI in test [7], in test [8], in test [9] and in test [10] was above 100 µM in each case.

Consider `C=C1CCC2C3(C)COC(c4ccccc4)OC3CCC2(C)C1/C=C/C1=CCOC1=O` (stereo unspecified), for which the GI50 in test [1] was 19.9 µM; in test [2], 2640 nM; in [3], 3770 nM; in [4], 4.81 µM; in test [5] it was 2840 nM; in test [6], 1950 nM. The GI50 in test [7] is 1.69 µM; in test [8], 6820 nM; in [9] it was 8.71 µM; in [10], 15.6 µM. Also, the TGI in test [1] stood at 69.4 µM; in test [2], 10.1 µM; in test [3] it was 12.8 µM; in test [4], 15.9 µM; in [5] it was 13.8 µM; in test [6] it was 5.64 µM. Moreover, the TGI was 5.69 µM in test [7], 22.9 µM in test [8], 21.2 µM in test [9] and 32.6 µM in test [10].

On to `Clc1ccc(-c2c3c(nn2-c2ccccn2)CCc2ccccc2-3)cc1Cl`, for which the GI50 in test [1] is above 100 µM; in test [2] it was 67600 nM; in test [3], above 100000 nM; in test [4], above 100 µM; in test [5], above 100000 nM; in [6], 76100 nM. Besides, the GI50 in test [7] was 31.4 µM; in test [8] it was above 100000 nM; in test [9], above 100 µM; in test [10] it was 47.9 µM. The TGI in test [1], in [2], in [3], in test [4], in test [5] and in [6] was above 100 µM throughout. For the same compound, the TGI in test [7], in test [8], in test [9] and in [10] was above 100 µM in each case.

Turning to `COc1cc(-c2cc(O)c(-c3ccc4ccccc4n3)c(=O)[nH]2)cc(OC)c1OC`, the TGI in test [1] was above 100 µM; in [2], 46.1 µM; in test [3] it was above 85.6 µM; in test [4], above 78.9 µM; in test [5], 11.6 µM; in test [6], 62.2 µM. Also, the TGI is above 95.3 µM in [7], above 67.9 µM in test [8], 74.5 µM in test [9] and above 54.8 µM in test [10].

Consider `[N-]=[N+]=NCCCCCC(=O)OC(C(=O)c1ccccc1)c1cccc(OCC(=O)NCCOCCOCCNC(=O)CCCC[C@@H]2SC[C@@H]3NC(=O)N[C@@H]32)c1` (stereo partly specified), for which the GI50 in test [1] is 60.7 µM; in test [2], 95800 nM; in test [3], above 100000 nM; in [4], above 100 µM; in test [5], 50600 nM; in [6] it was 67200 nM. The GI50 in [7] was 29.3 µM; in [8], above 100000 nM; in [9], 25.3 µM; in test [10], above 100 µM. Also, the TGI in test [1], in test [2], in test [3], in test [4], in test [5] and in test [6] was above 100 µM each time. The TGI in test [7] was above 100 µM; in [8] it was above 100 µM; in test [9], 72.7 µM; in [10], above 100 µM.
